According to ChEMBL document CHEMBL6134810, “Novel Hypochlorous Acid-Activated Near-Infrared Probe Monitors the Dynamic Changes of Myeloperoxidase Activity in Ischemic Brain” (J Med Chem, 2025):
Active and inactive are the calls of the source. The rule behind the calls is not given here.

Columns and labels:
Mus musculus [1] = species: Mus musculus; experiment: Protection against photo thrombotic stroke induced cerebral ischemic male C57 mouse model assessed as improvement in sensory motor dysfunction measured after 5 days by foot fault test; type: functional, organism-based; conditions: time 5.0 day
Mus musculus [2] = species: Mus musculus; experiment: Protection against photo thrombotic stroke induced cerebral ischemic male C57 mouse model assessed as improvement in sensory motor dysfunction measured after 5 days by rotarod test; type: functional, organism-based; conditions: time 5.0 day
Mus musculus [3] = species: Mus musculus; experiment: Protection against photo thrombotic stroke induced cerebral ischemic male C57 mouse model assessed as reduction in number neutrophils measured after 7 days; type: functional, organism-based; conditions: time 7.0 day
[4] = molecular target: T1, Myeloperoxidase (Homo sapiens) (UniProt P05164); experiment: Binding affinity to MPO (unknown origin) assessed as change in enthalpy by ITC analysis
T1 sequence (whole entry): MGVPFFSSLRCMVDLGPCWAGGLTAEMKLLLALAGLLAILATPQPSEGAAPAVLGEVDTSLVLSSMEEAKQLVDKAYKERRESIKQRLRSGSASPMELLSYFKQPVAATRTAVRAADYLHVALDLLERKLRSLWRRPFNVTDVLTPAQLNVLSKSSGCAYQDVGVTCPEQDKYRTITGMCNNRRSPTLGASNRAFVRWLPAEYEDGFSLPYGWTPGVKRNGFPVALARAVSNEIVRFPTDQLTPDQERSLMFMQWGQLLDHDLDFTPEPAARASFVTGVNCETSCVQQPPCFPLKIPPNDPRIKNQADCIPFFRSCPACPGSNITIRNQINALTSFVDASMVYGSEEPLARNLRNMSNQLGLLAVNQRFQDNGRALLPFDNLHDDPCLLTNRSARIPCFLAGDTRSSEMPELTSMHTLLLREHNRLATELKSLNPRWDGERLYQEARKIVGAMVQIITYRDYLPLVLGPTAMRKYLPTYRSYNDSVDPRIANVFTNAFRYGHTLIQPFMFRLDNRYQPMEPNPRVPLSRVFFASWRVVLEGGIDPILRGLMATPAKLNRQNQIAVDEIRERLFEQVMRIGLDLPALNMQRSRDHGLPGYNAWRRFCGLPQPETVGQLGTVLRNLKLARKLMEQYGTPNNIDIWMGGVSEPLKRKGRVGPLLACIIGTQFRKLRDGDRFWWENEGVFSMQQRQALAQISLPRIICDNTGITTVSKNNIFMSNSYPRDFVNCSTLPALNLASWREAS

[5] = molecular target: T1, Myeloperoxidase (Homo sapiens); experiment: (§1) Binding affinity to MPO (unknown origin) assessed as dissociation constant by ITC analysis
HT-22 [6] = experiment: Cytotoxicity against mouse HT-22 cells assessed as cell viability at 20 uM incubated for 24 hrs by CCK-8 method; type: functional, cell-based
Mus musculus [7] = experiment: Protection against photo thrombotic stroke induced cerebral ischemia in male C57BL/6 mouse model assessed as decrease in infarct size at 40 mg/kg, IG preincubated for 18 consecutive days followed by induction of stoke for 3 days and measured after 5 days by TTC staining based analysis; type: functional, organism-based; conditions: time 26.0 day
Mus musculus [8] = experiment: Protection against photo thrombotic stroke induced cerebral ischemia in male C57BL/6 mouse model assessed as decrease in asymmetry index at 40 mg/kg, IG preincubated for 18 consecutive days followed by induction of stoke for 3 days and measured after 10 to 15 days by foot fault test; type: functional, organism-based; conditions: time 31-36 day
Mus musculus [9] = experiment: Protection against photo thrombotic stroke induced cerebral ischemia in male C57BL/6 mouse model assessed as effect on body weight at 40 mg/kg, IG preincubated for 18 consecutive days followed by induction of stoke for 3 days and measured after 5 days by TTC staining based analysis; type: functional, organism-based; conditions: time 26.0 day
Mus musculus [10] = experiment: Protection against photo thrombotic stroke induced cerebral ischemia in male C57BL/6 mouse model assessed as inhibition of MPO activity in brain at 40 mg/kg, IG preincubated for 18 consecutive days followed by induction of stoke for 3 days and measured after 7 days; type: functional, organism-based; conditions: time 28.0 day
Mus musculus [11] = experiment: Protection against photo thrombotic stroke induced cerebral ischemia in male C57BL/6 mouse model assessed as amelioration of foot fault in forelimb at 40 mg/kg, IG preincubated for 18 consecutive days followed by induction of stoke for 3 days and measured after 5 to 15 days by foot fault test; type: functional, organism-based; conditions: time 26-36 day
Mus musculus [12] = experiment: Protection against photo thrombotic stroke induced cerebral ischemia in male C57BL/6 mouse model assessed as amelioration of foot fault in hindlimb at 40 mg/kg, IG preincubated for 18 consecutive days followed by induction of stoke for 3 days and measured after 5 to 15 days by foot fault test; type: functional, organism-based; conditions: time 26-36 day
[13] = molecular target: T1, Myeloperoxidase (Homo sapiens); experiment: Induction of thermal stabilization of MPO (unknown origin) at 10 uM by CESTA analysis
[14] = molecular target: T1, Myeloperoxidase (Homo sapiens); experiment: Inhibition of MPO in HEK293T cells harbouring MPO-ZsGreen assessed as decrease in red fluorescence intensity at 10 uM preincubated with edaravone for 4 hrs followed by compound addition and measured after 30 mins by fluorescence imaging based confocal microscopy analysis; type: cell-based
[15] = molecular target: T1, Myeloperoxidase (Homo sapiens); experiment: Inhibition of MPO in HEK293T cells harbouring MPO-ZsGreen assessed as decrease in red fluorescence intensity at 10 uM preincubated with ZL-006 for 4 hrs followed by compound addition and measured after 30 mins by fluorescence imaging based confocal microscopy analysis; type: cell-based
HT-22 [16] = experiment: Cytotoxicity against mouse HT-22 cells assessed as cell viability at 50 uM incubated for 24 hrs by CCK-8 method; type: functional, cell-based
[17] = molecular target: T1, Myeloperoxidase (Homo sapiens); experiment: Inhibition of MPO in human HL-60 cells harbouring MPO-ZsGreen assessed as decrease in red fluorescence intensity at 10 uM preincubated with AZD5904 for 2 hrs followed by compound addition and measured after 30 mins by fluorescence imaging based confocal microscopy analysis; type: cell-based
Mus musculus [18] = species: Mus musculus; experiment: Protection against photo thrombotic stroke induced cerebral ischemia in male C57BL/6 mouse model assessed as decrease in fluorescence response in brain cortex preincubated with AZD5904 for 18 consecutive days followed by induction of stoke for 3 days and measured after 7 days by Ly6G staining based confocal microscopy based analysis; type: functional, organism-based; conditions: time 7.0 day
[19] = molecular target: T1, Myeloperoxidase (Homo sapiens); experiment: Inhibition of MPO in HEK293T cells harbouring MPO-ZsGreen assessed as decrease in red fluorescence intensity at 10 uM preincubated with MPO-IN-28 for 4 hrs followed by compound addition and measured after 30 mins by fluorescence imaging based confocal microscopy analysis; type: cell-based
[20] = Drug uptake in human HeLa cells assessed as increase in red fluorescence at 10 uM measured after 30 mins in presence of HClO by Hoechst staining based confocal microscopic analysis; type: ADME, cell-based; conditions: 0.5 h
Myeloperoxidase = molecular target: T2, Myeloperoxidase (Homo sapiens, UniProt P05164); experiment: as §1
T2 sequence (P05164 whole entry): T1 sequence (whole entry)

[21] = molecular target: T1, Myeloperoxidase (Homo sapiens); experiment: Inhibition of MPO in HEK293T cells harbouring MPO-ZsGreen assessed as decrease in red fluorescence intensity at 10 uM preincubated with ZL-002 for 4 hrs followed by compound addition and measured after 30 mins by fluorescence imaging based confocal microscopy analysis; type: cell-based
Brain [22] = experiment: (§2) Ex vivo protection against photo thrombotic stroke induced cerebral ischemia in male C57BL/6 mouse brain assessed as decrease in MPO induced HClO fluorescence signal in cortex at 10 uM preincubated with AZD5904 for 1 hr followed by compound addition and measured after 30 mins by fluorescence imaging based confocal microscopy analysis; type: functional, tissue-based
Brain [23] = experiment: as §2, with “MPO-IN-28” for “AZD5904”; type: functional, tissue-based
[24] = Drug uptake in human HeLa cells at 10 uM measured after 30 mins by Hoechst staining based confocal microscopic analysis; type: ADME, cell-based; conditions: 0.5 h
[25] = molecular target: T1, Myeloperoxidase (Homo sapiens); experiment: Inhibition of MPO in human HL-60 cells harbouring MPO-ZsGreen assessed as decrease in red fluorescence intensity at 10 uM preincubated with MPO-IN-28 for 2 hrs followed by compound addition and measured after 30 mins by fluorescence imaging based confocal microscopy analysis; type: cell-based
Mus musculus [26] = experiment: Protection against photo thrombotic stroke induced cerebral ischemia in male C57BL/6 mouse model assessed as MPO secretion in brain at 1 mg/kg, iv by Ly6G staining based confocal microscopy based analysis; type: functional, organism-based
[27] = molecular target: T1, Myeloperoxidase (Homo sapiens); experiment: Inhibition of MPO in HEK293T cells harbouring MPO-ZsGreen assessed as decrease in red fluorescence intensity at 10 uM preincubated with AZD5904 for 4 hrs followed by compound addition and measured after 30 mins by fluorescence imaging based confocal microscopy analysis; type: cell-based
[28] = Drug uptake in IFN-gamma treated human Neutrophil cells assessed as increase in fluorescence at 10 uM measured after 30 mins by Hoechst staining based confocal microscopic analysis; type: ADME, cell-based; conditions: 0.5 h
[29] = Drug uptake in human HeLa cells assessed as increase in red fluorescence at 10 uM measured within 40 mins in presence of HClO by Hoechst staining based confocal microscopic analysis; type: ADME, cell-based

CC1=NN(c2ccccc2)C(=O)C1
Activity (Mus musculus [1]): inactive
Activity (Mus musculus [2]): inactive
Activity (Mus musculus [3]): inactive

CCNc1cc2[o+]c3cc(NCC)c(C)cc3c(-c3ccccc3C(=O)OCC)c2cc1C
Activity [4]: inactive
Activity [5]: inactive

CN(C)c1ccc2c(c1)[Si](C)(C)c1cc(N(C)C)ccc1C21c2ccccc2C(=O)N1NC(=S)NCCc1c[nH]c2ccc(O)cc12
Activity (HT-22 [6]): Active

O=c1[nH]c(=S)n(C[C@H]2CCCO2)c2nc[nH]c12
Activity (Mus musculus [7]): Active
Activity (Mus musculus [8]): Active
Activity (Mus musculus [9]): Active
Activity (Mus musculus [10]): Active
Activity (Mus musculus [11]): Active
Activity (Mus musculus [12]): Active

COc1ccc2[nH]cc(CCNC(=S)NN3C(=O)c4ccccc4C34c3ccc(N(C)C)cc3[Si](C)(C)c3cc(N(C)C)ccc34)c2c1
deltaH [4]: 2.39 kcal/mol
Activity [13]: Active
inhibition [14]: inactive
inhibition [15]: Active
Activity (HT-22 [16]): Active; Compound Showed Little Toxicity
inhibition [17]: Active
Activity (Mus musculus [18]): Active
inhibition [19]: Active
Drug uptake [20]: Active
Kd (Myeloperoxidase): 11.6 µM
inhibition [21]: inactive
Activity (Brain [22]): Active
Activity (Brain [23]): Active
Drug uptake [24]: Not_active
inhibition [25]: Active
Activity (Mus musculus [26]): Active
inhibition [27]: Active
Drug uptake [28]: Active
Drug uptake [29]: Not_active
